The text below walks through data of US11299478B2, “2-cyanopyrimidin-4-yl carbamate or urea derivative or salt thereof, and pharmaceutical composition including same” (HANLIM PHARMACEUTICAL CO., LTD., priority 2018, dated 2022).

Some results are limits rather than exact numbers.

The target of this assay is T1, cathepsin K (Homo sapiens, UniProt P43235).
T1 sequence (P43235 115-329): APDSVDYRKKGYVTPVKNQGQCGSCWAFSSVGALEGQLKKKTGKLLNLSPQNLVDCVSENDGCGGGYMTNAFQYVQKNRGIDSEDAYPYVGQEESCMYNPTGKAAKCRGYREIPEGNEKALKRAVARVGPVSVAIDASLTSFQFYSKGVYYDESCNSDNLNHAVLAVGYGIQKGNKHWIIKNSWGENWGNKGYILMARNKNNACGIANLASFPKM
The assay is described as follows: Inhibitory activity assay against cathepsin K (enzyme assay). Conditions: Z-Phe-Arg-AMC 10 μM, enzyme 1 nM, pH 5.5, 30 minutes. Format: biochemical. How it is done:
In order to measure the enzyme activity of cathepsin K, a buffer solution (pH 5.5) consisting of 50 mM 2-(N-morpholino)ethanesulfonic acid (MES), 2 mM dithiothreitol (DTT), 2.5 mM ethylenediaminetetraacetic acid (EDTA), 0.01% Triton X-100, and 10% dimethyl sulfoxide (DMSO) was prepared. The substrate, the test material, and the enzyme were mixed in the buffer solution in a predetermined concentration. The Z-Phe-Arg-AMC substrate was used in the final concentration of 10 μM. The test material was used in the final concentrations of 10.0 μM, 3.33 μM, 1.11 μM, 0.370 μM, 0.123 μM, 0.0412 μM, 0.0137 μM, 0.00457 μM, 0.00152 μM, and 0.000508 μM, respectively. The cathepsin K enzyme was used in the final concentration of 1 nM. The final volume of the enzyme reaction solution was 10 μL. After reacting the mixture of substrate, test material, and enzyme for 30 minutes, the enzyme activity was measured with the Synergy Neo (Biotek) microplate reader at an absorption wavelength of 355 nm and an emission wavelength of 460 nm. IC50 values were determined using 4-parameter logistic curve fit program of GraphPad Prism.
`N#Cc1nccc(C2(NC(=O)OCc3ccccc3)CCCC2)n1` [Example 1, Benzyl (1-(2-cyanopyrimidin-4-yl)cyclopentyl)carbamate]: the half-inhibitory concentration (IC50) came out at 23 nM.
Then `Cc1cccc(COC(=O)NC2(c3ccnc(C#N)n3)CCCC2)c1` [Example 5, 3-methylbenzyl (1-(2-cyanopyrimidin-4-yl)cyclopentyl)carbamate], with 161 nM; and `COc1cccc(COC(=O)NC2(c3ccnc(C#N)n3)CCCC2)c1` [Example 6, 3-methoxybenzyl (1-(2-cyanopyrimidin-4-yl)cyclopentyl)carbamate], with 179 nM; and `N#Cc1nccc(C2(NC(=O)OCc3cccc(Cl)c3)CCCC2)n1` [Example 8, 3-chlorobenzyl (1-(2-cyanopyrimidin-4-yl)cyclopentyl)carbamate], with 285 nM.
The figure for `N#Cc1cccc(COC(=O)NC2(c3ccnc(C#N)n3)CCCC2)c1` [Example 9, 3-cyanobenzyl (1-(2-cyanopyrimidin-4-yl)cyclopentyl)carbamate] is 490 nM; for `N#Cc1nccc(C2(NC(=O)OCc3cccc(-c4ccc(N5CCOCC5)cc4)c3)CCCC2)n1` [Example 32, (4′-morpholino-[1,1′-biphenyl]-3-yl)methyl (1-(2-cyanopyrimidin-4-yl)cyclopentyl)carbamate] it is at least 10000 nM.
Regarding `Cn1ncc2ccc(-c3ccc(COC(=O)NC4(c5ccnc(C#N)n5)CCCC4)cc3)cc21` [Example 34, 4-(1-methyl-1H-indazol-6-yl)benzyl (1-(2-cyanopyrimidin-4-yl)cyclopentyl)carbamate], the IC50 amounted to 2040 nM.
In the case of `Cc1ccccc1NC(=O)NC1(c2ccnc(C#N)n2)CCCC1` [Example 37, 1-(1-(2-cyanopyrimidin-4-yl)cyclopentyl)-3-(ortho-tolyl)urea], the IC50 is 113 nM.
On to `Cc1ccc(NC(=O)NC2(c3ccnc(C#N)n3)CCCC2)cc1` [Example 39, 1-(1-(2-cyanopyrimidin-4-yl)cyclopentyl)-3-(para-tolyl)urea], for which the IC50 was determined as 108 nM.
In the case of `N#Cc1nccc(C2(NC(=O)NCCc3ccc(S(N)(=O)=O)cc3)CCCC2)n1` [Example 45, 4-(2-(3-(1-(2-cyanopyrimidin-4-yl)cyclopentyl)ureido)ethyl)benzenesulfonamide], the IC50 came out at 3430 nM.
Turning to `Cc1cccc(CNC(=O)NC2(c3ccnc(C#N)n3)CCCC2)c1` [Example 47, 1-(1-(2-cyanopyrimidin-4-yl)cyclopentyl)-3-(3-methylbenzyl)urea], the IC50 was determined as 105 nM.
Then `COc1ccc(CNC(=O)NC2(c3ccnc(C#N)n3)CCCC2)cc1OC` [Example 49, 1-(1-(2-cyanopyrimidin-4-yl)cyclopentyl)-3-(3,4-dimethoxybenzyl)urea], with 590 nM; and `N#Cc1nccc(C2(NC(=O)Nc3ccc(N4CCNCC4)cc3)CCCC2)n1` [Example 52, 1-(1-(2-cyanopyrimidin-4-yl)cyclopentyl)-3-(4-(piperazin-1-yl)phenyl)urea], with 608 nM.
Then `N#Cc1nccc(C2(NC(=O)NCc3ccoc3)CCCC2)n1` [Example 53, 1-(1-(2-cyanopyrimidin-4-yl)cyclopentyl)-3-(furan-3-ylmethyl)urea], with 320 nM.
The figure for `N#Cc1nccc(C2(NC(=O)NCc3cccc(C(F)(F)F)c3)CCCC2)n1` [Example 57, 1-(1-(2-cyanopyrimidin-4-yl)cyclopentyl)-3-(3-(trifluoromethyl)benzyl)urea] is 517 nM; for `N#Cc1nccc(C2(NC(=O)NCc3ccc(C(F)(F)F)cc3)CCCC2)n1` [Example 58, 1-(1-(2-cyanopyrimidin-4-yl)cyclopentyl)-3-(4-(trifluoromethyl)benzyl)urea] it is 116 nM; for `N#Cc1nccc(C2(NC(=O)Nc3ccccc3C(F)(F)F)CCCC2)n1` [Example 59, 1-(1-(2-cyanopyrimidin-4-yl)cyclopentyl)-3-(2-(trifluoromethyl)phenyl)urea] it is 174 nM.
For `N#Cc1nccc(C2(NC(=O)Nc3ccc(C(F)(F)F)cc3)CCCC2)n1` [Example 61, 1-(1-(2-cyanopyrimidin-4-yl)cyclopentyl)-3-(4-(trifluoromethyl)phenyl)urea], the IC50 was 292 nM.
For the compound `COc1ccccc1CNC(=O)NC1(c2ccnc(C#N)n2)CCCC1` [Example 68, 1-(1-(2-cyanopyrimidin-4-yl)cyclopentyl)-3-(2-methoxybenzyl)urea], the IC50 turned out to be 219 nM.
The figure for `COc1cccc(CNC(=O)NC2(c3ccnc(C#N)n3)CCCC2)c1` [Example 69, 1-(1-(2-cyanopyrimidin-4-yl)cyclopentyl)-3-(3-methoxybenzyl)urea] is 552 nM; for `COc1ccc(CNC(=O)NC2(c3ccnc(C#N)n3)CCCC2)cc1` [Example 70, 1-(1-(2-cyanopyrimidin-4-yl)cyclopentyl)-3-(4-methoxybenzyl)urea] it is 270 nM.
The figure for `N#Cc1nccc(C2(NC(=O)Nc3cccc(O)c3)CCCC2)n1` [Example 71, 1-(1-(2-cyanopyrimidin-4-yl)cyclopentyl)-3-(3-hydroxyphenyl)urea] is 547 nM; for `N#Cc1nccc(C2(NC(=O)Nc3ccc(S(N)(=O)=O)cc3)CCCC2)n1` [Example 72, 4-(3-(1-(2-cyanopyrimidin-4-yl)cyclopentyl)ureido)benzenesulfonamide] it is 331 nM; for `N#Cc1nccc(C2(NC(=O)Nc3ccccc3O)CCCC2)n1` [Example 73, 1-(1-(2-cyanopyrimidin-4-yl)cyclopentyl)-3-(2-hydroxyphenyl)urea] it is 315 nM.
Turning to `Cn1ncc2cc(NC(=O)NC3(c4ccnc(C#N)n4)CCCC3)ccc21` [Example 76, 1-(1-(2-cyanopyrimidin-4-yl)cyclopentyl)-3-(1-methyl-1H-indazol-5-yl)urea], the IC50 is 573 nM.
The figure for `COc1ccccc1NC(=O)NC1(c2ccnc(C#N)n2)CCCC1` [Example 79, 1-(1-(2-cyanopyrimidin-4-yl)cyclopentyl)-3-(2-methoxyphenyl)urea] is 3080 nM.
For `COc1cccc(NC(=O)NC2(c3ccnc(C#N)n3)CCCC2)c1` [Example 80, 1-(1-(2-cyanopyrimidin-4-yl)cyclopentyl)-3-(3-methoxyphenyl)urea], the IC50 worked out at 157 nM.
The figure for `COc1ccc(NC(=O)NC2(c3ccnc(C#N)n3)CCCC2)cc1` [Example 81, 1-(1-(2-cyanopyrimidin-4-yl)cyclopentyl)-3-(4-methoxyphenyl)urea] is 162 nM; for `N#Cc1nccc(C2(NC(=O)Nc3cccc(-c4ccc(C(F)(F)F)cc4)c3)CCCCC2)n1` [Example 112, 1-(1-(2-cyanopyrimidin-4-yl)cyclohexyl)-3-(4′-(trifluoromethyl)-[1,1′-biphenyl]-3-yl)urea] it is 147 nM; for `N#Cc1nccc(C2(NC(=O)Nc3ccc(C(=O)O)cc3)CCCCC2)n1` [Example 135, 4-(3-(1-(2-cyanopyrimidin-4-yl)cyclohexyl)ureido)benzoic acid] it is 111 nM.
The figure for `CC(C)C1CCN(c2ccc(NC(=O)NC3(c4ccnc(C#N)n4)CCCCC3)cc2)CC1` [Example 145, 1-(1-(2-cyanopyrimidin-4-yl)cyclohexyl)-3-(4-(4-isopropylpiperidin-1-yl)phenyl)urea] is 76 nM; for `COCCc1ccc(OCc2ccc(-c3ccc(NC(=O)NC4(c5ccnc(C#N)n5)CCCCC4)cc3)cc2)cc1` [Example 152, 1-(1-(2-cyanopyrimidin-4-yl)cyclohexyl)-3-(4′-((4-(2-methoxyethyl)phenoxy)methyl)-[1,1′-biphenyl]-4-yl)urea] it is 2400 nM.
Then `COC(=O)CCC#Cc1ccc(-c2ccc(NC(=O)NC3(c4ccnc(C#N)n4)CCCCC3)cc2)cc1` [Example 175, methyl 5-(4′-(3-(1-(2-cyanopyrimidin-4-yl)cyclohexyl)ureido)-[1,1′-biphenyl]-4-yl)pent-4-ynoate], with 136 nM.

As a reminder, the IC50 is the concentration at which inhibition is half-maximal.
